Results taken from patent publication US20250206734A1, “BICYCLIC HETEROCYCLES AS MRGPRX2 ANTAGONISTS” (Incyte Corporation, priority 2023, published 2025).

Experiments:
Format in all cases: cell-based
[1] = molecular target: T1, MRGPRX2 (Homo sapiens, UniProt Q96LB1); test: MRGPRX2 FLIPR Calcium Mobilization Assay; design: host or cells: CHO-K1; conditions: CHO-K1 cells stably expressing human MRGPRX2; Ca2+ release; agonist Cortistatin-14 at EC80
T1 sequence (Q96LB1 1-330): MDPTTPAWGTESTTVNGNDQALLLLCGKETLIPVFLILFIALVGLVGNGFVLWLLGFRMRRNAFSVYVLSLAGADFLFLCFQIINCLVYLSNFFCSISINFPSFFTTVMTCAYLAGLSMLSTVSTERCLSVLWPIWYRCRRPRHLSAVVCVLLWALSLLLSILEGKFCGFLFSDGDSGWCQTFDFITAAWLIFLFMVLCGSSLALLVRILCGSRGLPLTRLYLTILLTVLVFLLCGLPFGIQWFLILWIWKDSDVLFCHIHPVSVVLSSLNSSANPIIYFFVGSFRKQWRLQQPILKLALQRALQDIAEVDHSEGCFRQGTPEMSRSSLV
Method: Example A. MRGPRX2 FLIPR Calcium Mobilization Assay
Chinese hamster ovary (CHO-K1) cells stably expressing human MRGPRX2 were purchased from Genescript (Piscataway, NJ). The cells were maintained in culture medium (Ham's F-12K) containing 10% (v/v) FBS, 200 μg/mL Zeocin, 100 units/mL penicillin G and 100 μg/mL streptomycin (Life Technologies, Carlsbad, CA). For the assay, the cells were harvested and resuspended with culture medium without Zeocin before plating at 8000 cells per well in 20 μL in 384-well black clear bottom cell culture plates (VWR, Radnor, PA). After 24 hour culture at 37° C. and 5% CO2, the cells were loaded with 20 μL/well of calcium dye (FLIPR Calcium 6 Assay Kit, Molecular Devices, San Jose, CA) diluted in loading buffer (1× Hank's Balanced Salt Solution (HBSS), 5 mM probenecid, 20 mM 4-(2-hydroxyethyl)-1-piperazineethanesulfonic acid (HEPES), pH 7.4, VWR, Radnor, PA) followed with 45 min incubation at 37° C. and 40 min. at r.t. in the dark. Cells were then treated with the addition of 10 uL/well test compounds with a range of increasing concentrations diluted in the assay buffer (1×HBSS, 20 mM HEPES, pH 7.4, VWR, Radnor, PA) with FLIPR Penta (Molecular Devices. San Jose, CA) and incubated for 30 min. at r.t. Ca^2+ release was measured with FLIPR Penta with 10 s basal fluorescence measurement, then 12.5 μL of 5× agonist Cortistatin-14 (Tocris, Minneapolis, MN) at final concentration corresponding to the EC80 were added followed with continued fluorescence signal monitoring for an additional 110 s. The base line adjusted (median of first 10s base line) max value of the Relative Fluorescence Unit (RFU) was plotted against compound concentrations. Wells with no compound were served as the positive controls, and wells with high concentration of reference antagonist were used as negative controls. IC50 curves were globally fitted with 3- or 4-parameter Hill equation in a Genedata Screener (Genedata Basel, Switzerland).

[2] = molecular target: T1, MRGPRX2; test: MRGPRX2 IP1 HTRF Assay; design: host or cells: CHO-K1; conditions: CHO-K1 cells stably expressing human MRGPRX2; IP1 accumulation; agonist Cortistatin 14 1 μM
Text: Example B: MRGPRX2 IP1 HTRF Assay
This assay measures compound inhibition of myo-Inositol 1 phosphate (IP1) accumulation in CHO-K1 cells. Chinese hamster ovary (CHO-K1) cells stably expressing human MRGPRX2 were purchased from GenScript (Piscataway, NJ).
For the HTRF IP1 determination, an IP-One GqKit (Perkin Elmer Cisbio, Waltham, MA), which includes all reagents and buffers in this protocol, was used. The cells were maintained in culture medium (Ham's F-12K) containing 10% (v/v) FBS, and 200 μg/mL Zeocin. For the assay, the cells were harvested and resuspended in culture medium with 2% FBS and without Zeocin, then were passed through a 40 μm filter. Cells were added at 20000 cells in a 5 μL/well to a 384-well white small volume cell culture plate (Greiner VWR, Radnor, PA) which contained 50 nL/well of test compound serially diluted at a selected concentration range in DMSO. 5 μL/well of prepared 2× Stimulation Buffer2 was then added to plates and was incubated at 37° C. with 5% CO2 for 1 h. 5 μL/well of agonist Cortistatin 14 (Bio-TechneR&D Systems, Minneapolis, MN) in 1× Stimulation Buffer 2, for a 1 μM final concentration, was then added to plates and incubated at 37° C. with 5% CO2 for 1 h. 6 μL/well of 1:20 diluted Detection Reagent Mix (d2 and Cryptate) was added to the plates and incubated for 1 h in the dark. Plates were read on the PHERAstar microplate reader (BMG Labtech Cary, NC) to determine the HTRF ratio of the acceptor and donor emission signals. The IP1 concentrations were calculated from a standard curve following the IP-One GQ kit instructions. Wells with DMSO only and wells with high concentration of reference antagonist were used as controls for normalization. Compound IC50 curves were globally fitted with 3- or 4-parameter Hill equation in a Genedata Screener (Genedata Basel, Switzerland).

[3] = molecular target: T1, MRGPRX2; test: MRGPRX2 β-Arrestin Assay; design: host or cells: PathHunter CHO-K1; conditions: PathHunter CHO-K1 MRGPRX2 β-Arrestin cell line; agonist Cortistatin 14 0.25 μM
Text: Example C: MRGPRX2 β-Arrestin Assay
This assay measures compound inhibition of β-Arrestin recruitment, which is part of the G protein-independent pathway that results from the ligand-activated GPCR phosphorylation by specific GPCR kinases. The PathHunter CHO-K1 MRPGRX2 B-Arrestin Cell line stably expressing ProLink tagged MRGPRX2 and Enzyme Acceptor Tagged B-Arrestin was purchased from Eurofins DiscoverX, (Fremont, CA).
The cells were maintained in culture medium from the Europhins DiscoverX Cell Culture Kit-107 which includes FBS, hygromycin B and G418. For the assay, the cells were harvested and were resuspended with Cell Plating Reagent 2 (Eurofins DiscoverX). Cells were added 10000 cells in 25 μL/well to a 384-well black cell culture plate (Greiner VWR, Radnor, PA) which contained 125 nL/well of compound at a selected serially diluted concentration range or DMSO. The plate was incubated at 37° C. with 5% CO2 for 1 h. 2 μL/well of agonist Cortistatin 14 was diluted in Protein Dilution Buffer, (Eurofins DiscoverX) for a final concentration of 0.25 μM, was added and the plate was incubated at 37° C. with 5% CO2 for 90 min. 14 μL/well of Detection Reagent Mix (PathHunter Detection Kit, Eurofins DiscoverX) was added to the plates and further incubated for 1 h in the dark. Plates were read on the PHERAstar microplate reader (BMG Labtech Cary, NC) measuring luminescence 0.1 to 1 s per well. Data was normalized using DMSO only wells and wells with high concentration of reference antagonist as controls. Compound IC50 curves were globally fitted with 3- or 4-parameter Hill equation in a Genedata Screener (Genedata Basel, Switzerland).

IC50 [1] [nM] | IC50 [2] [nM] | IC50 [3] [nM] | SMILES
0.1 to 100 | 100 to 1000 | 100 to 1000 | CC(c1cc2ncc(Oc3ccc(F)cc3F)cc2cn1)N1CCC(F)(F)CC1 (stereo not shown) [Example 1, 3-(2,4-Difluorophenoxy)-7-(1-(4,4-difluoropiperidin-1-yl)ethyl)-1,6-naphthyridine]
0.1 to 100 | 100 to 1000 | – | CC(c1cc2ncc(Oc3ccc(F)cc3F)cc2cn1)N1CCCC(F)(F)C1 (stereo not shown) [Example 2, 3-(2,4-Difluorophenoxy)-7-(1-(3,3-difluoropiperidin-1-yl)ethyl)-1,6-naphthyridine]
0.1 to 100 | – | 0.1 to 100 | CC1(C)CN(C(c2cc3ncc(Oc4ccc(F)cc4F)cc3cn2)C(F)(F)F)CCO1 (stereo not shown) [Example 8, 4-(1-(3-(2,4-Difluorophenoxy)-1,6-naphthyridin-7-yl)-2,2,2-trifluoroethyl)-2,2-dimethylmorpholine]
0.1 to 100 | – | 0.1 to 100 | CC1(CO)CCCN(C(c2cc3ncc(Oc4ccc(F)cc4F)cc3cn2)C(F)(F)F)C1 (stereo not shown) [Example 9, (1-(1-(3-(2,4-Difluorophenoxy)-1,6-naphthyridin-7-yl)-2,2,2-trifluoroethyl)-3-methylpiperidin-3-yl)methanol]
0.1 to 100 | – | 0.1 to 100 | N#CC1CCCN(C(c2cc3ncc(Oc4ccc(F)cc4F)cc3cn2)C(F)(F)F)C1 (stereo not shown) [Example 10, 1-(1-(3-(2,4-Difluorophenoxy)-1,6-naphthyridin-7-yl)-2,2,2-trifluoroethyl)piperidine-3-carbonitrile]
– | – | 100 to 1000 | Fc1ccc(Oc2cnc3cc(C(N4CC5CCC4C5)C(F)(F)F)ncc3c2)c(F)c1 (stereo not shown) [Example 11, 7-(1-(2-Azabicyclo[2.2.1]heptan-2-yl)-2,2,2-trifluoroethyl)-3-(2,4-difluorophenoxy)-1,6-naphthyridine]
0.1 to 100 | – | 0.1 to 100 | OC[C@@H]1CCCN1C(c1cc2ncc(Oc3ccc(F)cc3F)cc2cn1)C(F)(F)F (stereo partly drawn) [Example 13, ((2S)-1-(1-(3-(2,4-Difluorophenoxy)-1,6-naphthyridin-7-yl)-2,2,2-trifluoroethyl)pyrrolidin-2-yl)methanol]
– | 0.1 to 100 | 0.1 to 100 | O=c1ccc(C2CN(C(c3cc4ncc(Oc5ccc(F)cc5F)cc4cn3)C(F)(F)F)CCC2(F)F)c[nH]1 (stereo not shown) [Example 17, 5-(1-(1-(3-(2,4-Difluorophenoxy)-1,6-naphthyridin-7-yl)-2,2,2-trifluoroethyl)-4,4-difluoropiperidin-3-yl)pyridin-2(1H)-one]
– | 0.1 to 100 | 0.1 to 100 | Fc1ccc(Oc2cnc3cc(C(N4CC(F)(F)CC4c4ccccc4)C(F)(F)F)ncc3c2)c(F)c1 (stereo not shown) [Example 18, 7-(1-(4,4-Difluoro-2-phenylpyrrolidin-1-yl)-2,2,2-trifluoroethyl)-3-(2,4-difluorophenoxy)-1,6-naphthyridine]
– | 0.1 to 100 | 0.1 to 100 | Fc1ccc(Oc2cnc3cc(C(N4CCC(F)(F)C4c4ccccc4)C(F)(F)F)ncc3c2)c(F)c1 (stereo not shown) [Example 19, 7-(1-(3,3-Difluoro-2-phenylpyrrolidin-1-yl)-2,2,2-trifluoroethyl)-3-(2,4-difluorophenoxy)-1,6-naphthyridine]
– | 0.1 to 100 | 0.1 to 100 | O=c1ccc(C2CCCN2C(c2cc3ncc(Oc4ccc(F)cc4F)cc3cn2)C(F)(F)F)c[nH]1 (stereo not shown) [Example 20, 5-(1-(1-(3-(2,4-Difluorophenoxy)-1,6-naphthyridin-7-yl)-2,2,2-trifluoroethyl)pyrrolidin-2-yl)pyridin-2(1H)-one]
0.1 to 100 | – | 0.1 to 100 | CC1(O)CCCN(C(c2cc3ncc(Oc4ccc(F)cc4F)cc3cn2)C(F)F)C1 (stereo not shown) [Example 21, 1-(1-(3-(2,4-Difluorophenoxy)-1,6-naphthyridin-7-yl)-2,2-difluoroethyl)-3-methylpiperidin-3-ol]
0.1 to 100 | – | 0.1 to 100 | Fc1ccc(Oc2cnc3cc(C(C(F)F)N4CCC(F)(F)CC4)ncc3c2)c(F)c1 (stereo not shown) [Example 22, 3-(2,4-Difluorophenoxy)-7-(1-(4,4-difluoropiperidin-1-yl)-2,2-difluoroethyl)-1,6-naphthyridine]
0.1 to 100 | – | 0.1 to 100 | Fc1ccc(Oc2cnc3cc(C(C(F)F)N4CCCC(c5ccn[nH]5)C4)ncc3c2)c(F)c1 (stereo not shown) [Example 23, 7-(1-(3-(1H-Pyrazol-5-yl)piperidin-1-yl)-2,2-difluoroethyl)-3-(2,4-difluorophenoxy)-1,6-naphthyridine]
0.1 to 100 | – | 0.1 to 100 | NC(=O)[C@@H]1CCCN1C(c1cc2ncc(Oc3ccc(F)cc3F)cc2cn1)C(F)F (stereo partly drawn) [Example 24, (2S)-1-(1-(3-(2,4-Difluorophenoxy)-1,6-naphthyridin-7-yl)-2,2-difluoroethyl)pyrrolidine-2-carboxamide]
0.1 to 100 | – | 0.1 to 100 | Fc1ccc(Oc2cnc3cc(C(C(F)F)N4CCCC4c4ccccc4)ncc3c2)c(F)c1 (stereo not shown) [Example 25, 7-(2,2-Difluoro-1-(2-phenylpyrrolidin-1-yl)ethyl)-3-(2,4-difluorophenoxy)-1,6-naphthyridine]
– | – | > 1000 | O=c1ccc(C2CN(C(c3cc4ncc(Nc5ccc(F)cc5F)cc4cn3)C(F)(F)F)CCC2(F)F)c[nH]1 (stereo not shown) [Example 26, 5-(1-(1-(3-((2,4-Difluorophenyl)amino)-1,6-naphthyridin-7-yl)-2,2,2-trifluoroethyl)-4,4-difluoropiperidin-3-yl)pyridin-2(1H)-one]
– | – | > 1000 | O=c1ccc(C2CN(C(c3cc4ncc(Cc5ccccc5)cc4cn3)C(F)(F)F)CCC2(F)F)c[nH]1 (stereo not shown) [Example 27, 5-(1-(1-(3-Benzyl-1,6-naphthyridin-7-yl)-2,2,2-trifluoroethyl)-4,4-difluoropiperidin-3-yl)pyridin-2(1H)-one]
